Earlier results in patent US8598236B2, “Emulsion system derived from engkabang fat esters” (Universiti Putra Malaysia, priority 2009, dated 2013).

Details: purchased nonionic surfactants

Row | Substance | HLB value
1 | Sorbitan mono-oleate [Span80] | 4.3
2 | sorbitan monolaurate [Span20] | 8.6
3 | polyoxyethylene (20) sorbitan tri-oleate [Tween85] | 11.0
